Results published in patent publication US11220504B2, “Pyrrolo[3,2-d] pyrimidine derivatives for the treatment of viral infections and other diseases” (JANSSEN SCIENCES IRELAND UNLIMITED COMPANY, priority 2012, dated 2022).

Tests used:
[1] = system: interferon-stimulated responsive elements (ISRE); test: Activation of ISRE promoter elements by conditioned media from PBMC (HEK-ISREluc); assay type: cell-based, human; conditions: Homo sapiens; conditioned media from PBMC transferred to HEK-ISREluc cells, 24 hours; lowest effective concentration; read-out: PBMC LEC
In short: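 Human PBMCs (≥2 donors, RPMI + 10% human AB serum, 2×10^5 cells/well) incubated overnight with compound; supernatant transferred to HEK293 cells stably carrying pISRE-Luc for 24 h, then luciferase read. LEC = compound concentration on PBMCs giving luciferase signal at least two-fold above assay SD; recombinant IFN-α-2a standard.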

human TLR7 = target: T1, human TLR7 (Homo sapiens, UniProt Q9NYK1); test: TLR7 cellular reporter assay (HEK293, NFκB-luc); assay type: cell-based; conditions: HEK293 cells transfected with CMV-TLR7 and NFκB-luc, 6 hours incubation; lowest effective concentration
T1 construct: expressed in transfected cells; host or cells: HEK293 cells, transient transfection with CMV-TLR7 plasmid and NFκB-luc plasmid
T1 sequence (Q9NYK1 27-1049): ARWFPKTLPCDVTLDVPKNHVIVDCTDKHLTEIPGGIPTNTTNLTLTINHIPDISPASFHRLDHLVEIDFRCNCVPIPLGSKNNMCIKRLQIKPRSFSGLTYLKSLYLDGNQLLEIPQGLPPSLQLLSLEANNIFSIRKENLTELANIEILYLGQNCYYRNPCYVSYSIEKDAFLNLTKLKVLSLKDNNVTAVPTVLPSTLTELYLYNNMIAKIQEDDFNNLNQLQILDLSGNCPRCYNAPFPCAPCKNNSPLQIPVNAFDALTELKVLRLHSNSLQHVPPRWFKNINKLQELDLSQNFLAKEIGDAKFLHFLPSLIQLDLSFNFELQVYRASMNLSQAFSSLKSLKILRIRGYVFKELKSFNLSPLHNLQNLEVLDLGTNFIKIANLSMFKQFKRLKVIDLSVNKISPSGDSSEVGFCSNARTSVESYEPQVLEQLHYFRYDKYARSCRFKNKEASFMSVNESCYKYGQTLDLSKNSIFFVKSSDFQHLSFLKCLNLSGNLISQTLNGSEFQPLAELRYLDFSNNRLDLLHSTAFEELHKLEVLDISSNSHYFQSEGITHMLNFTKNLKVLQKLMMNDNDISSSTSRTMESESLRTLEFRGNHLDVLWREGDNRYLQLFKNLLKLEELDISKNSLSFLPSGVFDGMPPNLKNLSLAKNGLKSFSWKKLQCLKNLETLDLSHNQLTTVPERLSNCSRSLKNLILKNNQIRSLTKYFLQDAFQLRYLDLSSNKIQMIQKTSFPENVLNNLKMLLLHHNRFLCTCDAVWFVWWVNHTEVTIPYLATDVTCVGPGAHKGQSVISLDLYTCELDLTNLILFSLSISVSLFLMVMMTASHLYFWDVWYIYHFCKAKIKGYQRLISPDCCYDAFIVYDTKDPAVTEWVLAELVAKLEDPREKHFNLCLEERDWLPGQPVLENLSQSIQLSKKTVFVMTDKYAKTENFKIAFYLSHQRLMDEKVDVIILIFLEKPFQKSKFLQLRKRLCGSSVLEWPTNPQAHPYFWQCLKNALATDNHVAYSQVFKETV
In short: (§1)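 HEK293 cells transiently transfected with receptor expression vector plus NFκB-luciferase reporter, exposed to compound (added in 4% DMSO) for 6 hours at 37° C, 5% CO2. Luciferase activity measured by luminescence; dose-response curves from quadruplicate measurements.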

human TLR8 = target: T2, human TLR8 (Homo sapiens, UniProt Q9NR97); test: TLR8 cellular reporter assay (HEK293, NFκB-luc); assay type: cell-based; conditions: HEK293 cells transfected with CMV-TLR8 and NFκB-luc, 6 hours incubation; lowest effective concentration
T2 construct: expressed in transfected cells; host or cells: HEK293 cells, transient transfection with TLR8 plasmid and NFκB-luc plasmid
T2 sequence (Q9NR97 27-1041): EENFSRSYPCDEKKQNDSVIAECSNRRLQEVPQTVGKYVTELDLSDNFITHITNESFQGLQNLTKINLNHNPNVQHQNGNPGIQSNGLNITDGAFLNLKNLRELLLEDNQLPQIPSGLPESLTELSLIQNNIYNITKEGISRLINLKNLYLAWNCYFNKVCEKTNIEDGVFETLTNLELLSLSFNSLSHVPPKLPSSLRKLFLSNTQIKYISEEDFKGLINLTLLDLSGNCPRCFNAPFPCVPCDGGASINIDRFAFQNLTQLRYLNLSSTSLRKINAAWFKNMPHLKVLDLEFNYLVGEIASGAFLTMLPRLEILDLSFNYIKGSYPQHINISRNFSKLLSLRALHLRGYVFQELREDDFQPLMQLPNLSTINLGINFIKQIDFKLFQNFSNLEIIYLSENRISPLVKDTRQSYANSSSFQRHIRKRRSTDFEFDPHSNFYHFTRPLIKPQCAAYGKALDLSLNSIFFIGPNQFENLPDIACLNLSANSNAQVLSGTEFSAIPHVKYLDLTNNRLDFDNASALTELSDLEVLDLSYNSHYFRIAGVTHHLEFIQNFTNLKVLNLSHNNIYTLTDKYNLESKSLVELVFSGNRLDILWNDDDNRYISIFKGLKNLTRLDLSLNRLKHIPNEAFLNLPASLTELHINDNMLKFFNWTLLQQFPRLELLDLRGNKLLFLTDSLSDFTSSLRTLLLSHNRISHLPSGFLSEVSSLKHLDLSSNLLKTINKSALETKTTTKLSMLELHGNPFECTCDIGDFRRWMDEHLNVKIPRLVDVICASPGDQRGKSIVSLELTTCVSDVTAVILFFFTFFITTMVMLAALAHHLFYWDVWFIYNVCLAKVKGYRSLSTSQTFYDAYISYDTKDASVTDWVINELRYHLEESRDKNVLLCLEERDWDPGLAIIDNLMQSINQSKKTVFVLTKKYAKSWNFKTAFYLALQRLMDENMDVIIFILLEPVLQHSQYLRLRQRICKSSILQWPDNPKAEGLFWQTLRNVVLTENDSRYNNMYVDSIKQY
In short: as §1

| Structure (SMILES) | minimal effective concentration [1] | TLR7 LEC (human TLR7) | TLR8 LEC (human TLR8) |
| --- | --- | --- | --- |
| COCCn1ccc2nc(N)nc(NCc3cc(C(C)C)on3)c21 [Compound 199] | 0.032 µM | 0.60 µM | 23.5 µM |
| COCCn1ccc2nc(N)nc(NCc3cc(C4CC4)on3)c21 [Compound 200] | 0.035 µM | 0.17 µM | 11.4 µM |
| COCCn1ccc2nc(N)nc(NC(C)c3cccnc3)c21 (stereo not drawn) [Compound 201] | 0.978 µM | 7.30 µM | >25 µM |
| COCCn1ccc2nc(N)nc(NCc3ccc(C)cn3)c21 [Compound 202] | 0.58 µM | 1.61 µM | >25 µM |
| Cc1nc(CNc2nc(N)nc3ccn(Cc4ncccn4)c23)no1 [Compound 203] | 0.138 µM | 1.04 µM | >25 µM |
| Cc1nc(CNc2nc(N)nc3ccn(Cc4cnccn4)c23)no1 [Compound 204] | 0.188 µM | 1.78 µM | >25 µM |
| COc1ccccc1Cn1ccc2nc(N)nc(NCc3noc(C)n3)c21 [Compound 205] | 0.001 µM | <0.01 µM | 7.7 µM |
| COC[C@H](C)Nc1nc(N)nc2ccn(Cc3csc(C)n3)c12 [Compound 206] | 0.129 µM | 0.74 µM | 15 µM |
| COCc1nc(CNc2nc(N)nc3ccn(Cc4ccccn4)c23)no1 [Compound 208] | 0.402 µM | 5.14 µM | >25 µM |
| COc1cc(OC)nc(Cn2ccc3nc(N)nc(NCc4noc(C)n4)c32)n1 [Compound 209] | 0.008 µM | 0.04 µM | >25 µM |
| COc1cc(OC)nc(Cn2ccc3nc(N)nc(NCc4ncc(C)o4)c32)n1 [Compound 210] | 0.003 µM | 0.02 µM | >25 µM |
| COC[C@H](C)Nc1nc(N)nc2ccn(Cc3ccccn3)c12 [Compound 211] | 0.47 µM | 6.94 µM | 22 µM |
| COCCn1ccc2nc(N)nc(NC(C)COC)c21 (stereo not drawn) [Compound 212] | 2.09 µM | 7.60 µM | >25 µM |
| COc1cccnc1Cn1ccc2nc(N)nc(NCc3ncc(C)o3)c21 [Compound 213] | 0.001 µM | <0.01 µM | >25 µM |
| COc1ccccc1Cn1ccc2nc(N)nc(NCc3ncc(C)s3)c21 [Compound 215] | 0.001 µM | <0.01 µM | >25 µM |
